Consider six molecules from patent US11554091B2, “Composition for enhancing skin elasticity or improving skin wrinkles comprising heptahydroxyflavan as an effective ingredient” (AMOREPACIFIC CORPORATION, priority 2019, dated 2023).

In the assay the test system is MMP-1. The assay is described as follows: MMP-1 expression level by MMP-1 ELISA kit, UV-stimulated HaCaT cell culture and human fibroblast culture. The assay is classed as cell-based. The following applies: for MMP-1 production: Control = 100, UV = 260.4; for effect of inhibiting MMP-1 as compared to catechin or epicatechin: Table 1 and FIG. 3. As for the experimental part: Then, after replacing the medium with an FBS-free DMEM medium to starve the cells, they were treated with UV on the next day.
Then, the cells were starved by replacing the medium with an FBM medium with no supplement. Then, the UV-stimulated HaCaT cell culture and the human fibroblast culture were treated with a total of 6 samples prepared by dissolving the (2R,3S)-heptahydroxyflavan and (2R,3R)-heptahydroxyflavan obtained in Example 1 in 5% DMSO to concentrations of 5 μg/mL (=about 15.5 μM), 10 μg/mL (=about 31.0 μM) and 20 μg/mL (=about 62.1 μM), respectively. As comparative examples, the cultures were treated with a total of 6 samples prepared by dissolving catechin and epicatechin in 5% DMSO at concentrations of 25 μM, 50 μM and 100 μM, respectively.
After the treatment with the samples, the expression level of MMP-1 was measured using the MMP-1 ELISA kit (R&D Systems). Separately from this, positive control groups were treated with 10 μM EGCG or 10 μM retinoic acid instead of heptahydroxyflavan in the same manner as described above.
For orientation: ELISA stands for enzyme-linked immunosorbent assay.

With `Oc1ccc([C@H]2Oc3c(O)c(O)c(O)c(O)c3C[C@@H]2O)cc1O` [APNP-054], the “effect of inhibiting MMP-1 as compared to catechin or epicatechin” value was “remarkably superior effect of inhibiting MMP-1”. This molecule yielded an MMP-1 production (5 μg/mL) of 282.1. Moreover, the MMP-1 production (10 μg/mL) is listed as 267.7. The MMP-1 production (20 μg/mL) came out at 183.2.
Regarding `Oc1ccc([C@H]2Oc3c(O)c(O)c(O)c(O)c3C[C@H]2O)cc1O` [APNP-055], the “effect of inhibiting MMP-1 as compared to catechin or epicatechin” value is given as “remarkably superior effect of inhibiting MMP-1”. The same molecule registered an MMP-1 production (5 μg/mL) of 281.0. Under “10 μg/mL”, this molecule yielded an MMP-1 production of 286.6. The same molecule gave an MMP-1 production (20 μg/mL) of 160.6.
As to `O=C(O[C@@H]1Cc2c(O)cc(O)cc2O[C@@H]1c1cc(O)c(O)c(O)c1)c1cc(O)c(O)c(O)c1` [EGCG], the MMP-1 production (10 μM) worked out at 115.4.
In turn, `Oc1cc(O)c2c(c1)O[C@H](c1ccc(O)c(O)c1)[C@H](O)C2` [Epicatechin, epicatechin] registered an MMP-1 production (25 μM) of 294.8, an MMP-1 production (50 μM) of 289.1 and an MMP-1 production (100 μM) of 196.2.
Where the note is “10 μM”, `CC1=C(/C=C/C(C)=C/C=C/C(C)=C/C(=O)O)C(C)(C)CCC1` [RA, retinoic acid] gave an MMP-1 production of 104.5.
On to catechin, for which the MMP-1 production (25 μM) stood at 308.2, the MMP-1 production (50 μM) is listed as 287.4 and the MMP-1 production (100 μM) was found to be 257.3.
